# Data as given in patent US11324698B2, “Sterically stabilized carrier for aerosol therapeutics, compositions and methods for treating the respiratory tract of a mammal” (VGSK Technologies, Inc., priority 2003, dated 2022).
# What was measured:
# [1] = tested on: sensitized mice; assay: Preliminary dose-response study of daily nebulized BUD in sensitized mice; format: in vivo; conditions: daily nebulization
# Procedure: The dose of BUD chosen was based on preliminary dose-response studies with 5 to 50 μg of BUD as follows.
# Each day, 5, 10, 15, 20 or 50 μg of BUD was administered via nebulization to groups of sensitized mice, and the dose-dependent effects on the inflammatory parameters were evaluated.
# [2] = BUD alone; cited from earlier work
compound,measurement,setting,value
"CCCC1O[C@@H]2C[C@H]3[C@@H]4CCC5=CC(=O)C=C[C@]5(C)[C@H]4[C@@H](O)C[C@]3(C)[C@]2(C(=O)CO)O1 (stereo partly drawn) [Daily BUD, budesonide]","toxicity to the spleen, liver, bone morrow or gastrointestinal tract","[1]; 20 μg/ml dose of BUD, histopathologic examination",without evidence of toxicity
same,granulomas or abnormalities in tissues,[1]; preliminary dose-response study,no granulomas or abnormalities in any of the tissues evaluated
same,effective life in the lungs,[2],no more than one day
